PubChem BioAssay (NCI)
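Grown in 96-well plates, cells were treated for 48 hours with each compound at five concentrations. Insufficient inhibition: endpoint recorded as highest concentration tested. TGI: total growth inhibition.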

Tests used:
Assay in all cases: NCI tumour cell line growth inhibition, 48 h
M14 melanoma = test system: M14 melanoma
NCI-H460 lung = test system: NCI-H460 lung
SR leukemia = test system: SR leukemia
NCI/ADR-RES ovarian = test system: NCI/ADR-RES ovarian
HL-60(TB) leukemia = test system: HL-60(TB) leukemia
HT29 colon = test system: HT29 colon
OVCAR-8 ovarian = test system: OVCAR-8 ovarian
U251 CNS = test system: U251 CNS
SF-295 CNS = test system: SF-295 CNS

Compound: COc1ccc2cc(C(=O)NCCCNC(=O)c3ccc4cc(OC)ccc4c3)ccc2c1
- TGI (M14 melanoma): > 100 µM
- TGI (NCI-H460 lung): > 100 µM
- TGI (SR leukemia): > 100 µM
- TGI (NCI/ADR-RES ovarian): > 100 µM
- TGI (HL-60(TB) leukemia): > 100 µM
- TGI (HT29 colon): > 100 µM
- TGI (OVCAR-8 ovarian): > 66.3 µM
- TGI (U251 CNS): > 85.4 µM
- TGI (SF-295 CNS): > 83.8 µM

Compound: CCOC(=O)Cn1c(=O)c2cc(-c3ccccc3)cc3c(Cl)nc4c(OC)c(OC)cc1c4c32
- TGI (M14 melanoma): 32.9 µM
- TGI (NCI-H460 lung): 39.1 µM
- TGI (SR leukemia): > 100 µM
- TGI (NCI/ADR-RES ovarian): 56.5 µM
- TGI (HL-60(TB) leukemia): 27.4 µM
- TGI (HT29 colon): 48.1 µM
- TGI (OVCAR-8 ovarian): 44.4 µM
- TGI (U251 CNS): > 100 µM
- TGI (SF-295 CNS): > 100 µM

Compound: CC(NC(C#N)CC12CC3CC(CC(C3)C1)C2)c1ccccc1 (stereo unspecified)
- TGI (M14 melanoma): > 100 µM
- TGI (NCI-H460 lung): 67.1 µM
- TGI (SR leukemia): > 100 µM
- TGI (NCI/ADR-RES ovarian): > 100 µM
- TGI (HL-60(TB) leukemia): 42.3 µM
- TGI (HT29 colon): > 100 µM
- TGI (OVCAR-8 ovarian): > 100 µM
- TGI (U251 CNS): > 100 µM
- TGI (SF-295 CNS): > 100 µM

Compound: Oc1ccc(O)c(CNc2ccccc2)c1
- TGI (M14 melanoma): 33.7 µM
- TGI (NCI-H460 lung): 47 µM
- TGI (SR leukemia): 75.2 µM
- TGI (NCI/ADR-RES ovarian): > 100 µM
- TGI (HL-60(TB) leukemia): 12.8 µM
- TGI (HT29 colon): > 100 µM
- TGI (OVCAR-8 ovarian): 36.4 µM
- TGI (U251 CNS): 44.2 µM
- TGI (SF-295 CNS): 29.7 µM

Compound: O=[N+]([O-])c1ccc2c(c1)c(S(=O)(=O)O)cc1nonc12
- TGI (M14 melanoma): > 100 µM
- TGI (NCI-H460 lung): > 100 µM
- TGI (SR leukemia): > 100 µM
- TGI (NCI/ADR-RES ovarian): > 100 µM
- TGI (HL-60(TB) leukemia): > 100 µM
- TGI (HT29 colon): > 100 µM
- TGI (OVCAR-8 ovarian): > 100 µM
- TGI (U251 CNS): > 100 µM
- TGI (SF-295 CNS): > 100 µM

Compound: C[C@]1(O)O[C@@H]2OCC[C@@H]2C2=C1C(=O)c1ccccc1C2=O
- TGI (M14 melanoma): 24.1 µM
- TGI (NCI-H460 lung): 32.8 µM
- TGI (SR leukemia): 45.5 µM
- TGI (NCI/ADR-RES ovarian): 45.8 µM
- TGI (HL-60(TB) leukemia): 33.2 µM
- TGI (HT29 colon): > 100 µM
- TGI (OVCAR-8 ovarian): 29.4 µM
- TGI (U251 CNS): 29.8 µM
- TGI (SF-295 CNS): 35.8 µM

Compound: Oc1cccc(-c2cn3cc(C(F)(F)F)ccc3n2)c1
- TGI (M14 melanoma): > 100 µM
- TGI (NCI-H460 lung): > 100 µM
- TGI (SR leukemia): > 100 µM
- TGI (NCI/ADR-RES ovarian): 78.1 µM
- TGI (HL-60(TB) leukemia): > 100 µM
- TGI (HT29 colon): 60.8 µM
- TGI (OVCAR-8 ovarian): > 100 µM
- TGI (U251 CNS): > 100 µM
- TGI (SF-295 CNS): 94 µM

Compound: NC(=O)c1nnsc1NC=O
- TGI (M14 melanoma): > 100 µM
- TGI (NCI-H460 lung): > 100 µM
- TGI (SR leukemia): > 100 µM
- TGI (NCI/ADR-RES ovarian): > 100 µM
- TGI (HL-60(TB) leukemia): > 100 µM
- TGI (HT29 colon): > 100 µM
- TGI (OVCAR-8 ovarian): > 100 µM
- TGI (U251 CNS): > 100 µM
- TGI (SF-295 CNS): > 100 µM

Compound: O=c1cc(N=Nc2ccc(Cl)cc2)[nH]c(=O)[nH]1
- TGI (M14 melanoma): 9.19 µM
- TGI (NCI-H460 lung): 12.2 µM
- TGI (SR leukemia): 2.67 µM
- TGI (NCI/ADR-RES ovarian): 12.5 µM
- TGI (HL-60(TB) leukemia): 3.89 µM
- TGI (HT29 colon): 5.44 µM
- TGI (OVCAR-8 ovarian): 12 µM
- TGI (U251 CNS): 12.6 µM
- TGI (SF-295 CNS): 22.3 µM

Compound: O=C1CCCC2=C1CC1=C(CCCC1=O)N2c1ccccc1
- TGI (M14 melanoma): > 100 µM
- TGI (NCI-H460 lung): > 100 µM
- TGI (SR leukemia): > 100 µM
- TGI (NCI/ADR-RES ovarian): > 100 µM
- TGI (HL-60(TB) leukemia): > 100 µM
- TGI (HT29 colon): > 100 µM
- TGI (OVCAR-8 ovarian): > 100 µM
- TGI (U251 CNS): > 100 µM

Compound: O=[N+]([O-])c1c2nc3n(c2cc2c1nc1n2CCC1)CCC3
- TGI (M14 melanoma): > 100 µM
- TGI (NCI-H460 lung): > 100 µM
- TGI (SR leukemia): > 100 µM
- TGI (NCI/ADR-RES ovarian): > 100 µM
- TGI (HL-60(TB) leukemia): > 100 µM
- TGI (HT29 colon): > 100 µM
- TGI (OVCAR-8 ovarian): > 100 µM
- TGI (U251 CNS): > 100 µM
- TGI (SF-295 CNS): > 100 µM

Compound: CC12CCC(C(Nc3ccccn3)C1=O)C2(C)C (stereo unspecified)
- TGI (M14 melanoma): > 100 µM
- TGI (NCI-H460 lung): > 100 µM
- TGI (SR leukemia): > 100 µM
- TGI (NCI/ADR-RES ovarian): > 100 µM
- TGI (HL-60(TB) leukemia): > 100 µM
- TGI (HT29 colon): > 100 µM
- TGI (OVCAR-8 ovarian): > 100 µM
- TGI (U251 CNS): > 100 µM
- TGI (SF-295 CNS): > 100 µM

Compound: COC(=O)c1cc(C(=CCC[C@H]2CC[C@@]3(C)C(CCC4C3CC[C@@]3(C)C4CC[C@@H]3C(C)CCCC(C)C)C2)c2cc(Cl)c(OC(=O)c3ccccc3)c(C(=O)OC)c2)cc(Cl)c1OC(=O)c1ccccc1 (stereo partly specified)
- TGI (M14 melanoma): > 10 µM
- TGI (NCI-H460 lung): > 10 µM
- TGI (SR leukemia): > 10 µM
- TGI (NCI/ADR-RES ovarian): > 10 µM
- TGI (HL-60(TB) leukemia): > 10 µM
- TGI (HT29 colon): > 10 µM
- TGI (OVCAR-8 ovarian): > 10 µM
- TGI (U251 CNS): > 10 µM
- TGI (SF-295 CNS): > 10 µM

Compound: COc1ccccc1NC(=O)O/N=C(/Cl)C(C)C
- TGI (M14 melanoma): 20.3 µM
- TGI (NCI-H460 lung): 37.5 µM
- TGI (SR leukemia): 4.73 µM
- TGI (NCI/ADR-RES ovarian): 35.5 µM
- TGI (HL-60(TB) leukemia): 3.6 µM
- TGI (HT29 colon): 15.3 µM
- TGI (OVCAR-8 ovarian): 28.6 µM
- TGI (U251 CNS): 30.6 µM
- TGI (SF-295 CNS): 29.1 µM

Compound: COc1ccc(Oc2nc(C#CC(C)(C)O)nc(Oc3ccc(OC)cc3)n2)cc1
- TGI (M14 melanoma): 4.24 µM
- TGI (NCI-H460 lung): 37.3 µM
- TGI (SR leukemia): 3.79 µM
- TGI (NCI/ADR-RES ovarian): 46.8 µM
- TGI (HL-60(TB) leukemia): 3.52 µM
- TGI (HT29 colon): 10.8 µM
- TGI (OVCAR-8 ovarian): 13.7 µM
- TGI (U251 CNS): 15.6 µM
- TGI (SF-295 CNS): 31.2 µM

Compound: CC1(C)CCC(=O)NC1CC(=O)CC1NC(=O)CCC1(C)C (stereo unspecified)
- TGI (M14 melanoma): > 100 µM
- TGI (NCI-H460 lung): > 100 µM
- TGI (SR leukemia): > 100 µM
- TGI (NCI/ADR-RES ovarian): > 100 µM
- TGI (HL-60(TB) leukemia): > 100 µM
- TGI (HT29 colon): > 100 µM
- TGI (OVCAR-8 ovarian): > 100 µM
- TGI (U251 CNS): > 100 µM
- TGI (SF-295 CNS): > 100 µM

Compound: Cc1nc2ccccc2n1Cc1nnc(N)o1
- TGI (M14 melanoma): > 100 µM
- TGI (NCI-H460 lung): > 100 µM
- TGI (SR leukemia): > 100 µM
- TGI (NCI/ADR-RES ovarian): > 100 µM
- TGI (HL-60(TB) leukemia): > 100 µM
- TGI (HT29 colon): > 100 µM
- TGI (OVCAR-8 ovarian): > 100 µM
- TGI (U251 CNS): > 100 µM
- TGI (SF-295 CNS): > 100 µM

Compound: N#Cc1ccc(Oc2nc3ccc(C(F)(F)F)cc3nc2-c2ccccc2)cc1
- TGI (M14 melanoma): 29.7 µM
- TGI (NCI-H460 lung): 31.4 µM
- TGI (SR leukemia): 9.86 µM
- TGI (NCI/ADR-RES ovarian): 37.1 µM
- TGI (HL-60(TB) leukemia): 46.3 µM
- TGI (HT29 colon): 34.5 µM
- TGI (OVCAR-8 ovarian): 34.4 µM
- TGI (U251 CNS): 30.9 µM
- TGI (SF-295 CNS): 58.2 µM

Compound: Cc1ccc(S(=O)(=O)N2CCNCCN(S(=O)(=O)c3ccc(C)cc3)CCN(S(=O)(=O)c3ccc(C)cc3)CC2)cc1
- TGI (M14 melanoma): > 100 µM
- TGI (NCI-H460 lung): > 100 µM
- TGI (SR leukemia): > 100 µM
- TGI (NCI/ADR-RES ovarian): > 100 µM
- TGI (HL-60(TB) leukemia): > 100 µM
- TGI (HT29 colon): > 100 µM
- TGI (OVCAR-8 ovarian): > 100 µM
- TGI (U251 CNS): > 100 µM
- TGI (SF-295 CNS): > 100 µM

Compound: Cc1nnc(-n2c(O)cc(=O)n(-c3ccccc3)c2=S)nc1/C=C/c1ccc(N(C)C)cc1
- TGI (M14 melanoma): > 100 µM
- TGI (NCI-H460 lung): > 54.8 µM
- TGI (SR leukemia): > 100 µM
- TGI (NCI/ADR-RES ovarian): > 100 µM
- TGI (HL-60(TB) leukemia): 7.1 µM
- TGI (HT29 colon): > 100 µM
- TGI (OVCAR-8 ovarian): > 80.2 µM
- TGI (U251 CNS): > 46.4 µM
- TGI (SF-295 CNS): > 62.2 µM

Compound: c1ccc2c(c1)CC1COc3ccccc3C1O2 (stereo unspecified)
- TGI (M14 melanoma): > 100 µM
- TGI (SR leukemia): > 100 µM
- TGI (NCI/ADR-RES ovarian): > 100 µM
- TGI (HL-60(TB) leukemia): > 100 µM
- TGI (HT29 colon): > 100 µM
- TGI (OVCAR-8 ovarian): > 100 µM
- TGI (U251 CNS): > 100 µM
- TGI (SF-295 CNS): > 100 µM

Compound: NC(=O)CC(N=C1C(=O)OC(C(O)CO)C1=NC(CC(N)=O)C(=O)O)C(=O)O (stereo unspecified)
- TGI (M14 melanoma): > 100 µM
- TGI (NCI-H460 lung): > 100 µM
- TGI (SR leukemia): > 100 µM
- TGI (NCI/ADR-RES ovarian): > 100 µM
- TGI (HL-60(TB) leukemia): > 100 µM
- TGI (HT29 colon): > 100 µM
- TGI (OVCAR-8 ovarian): > 100 µM
- TGI (U251 CNS): > 100 µM
- TGI (SF-295 CNS): > 100 µM
